Results: ChEMBL document CHEMBL3414533, “Thiophene containing trisubstituted methanes [TRSMs] as identified lead against Mycobacterium tuberculosis” (Eur J Med Chem, 2015)
Converted amounts (≈) assume the structure as drawn. The source made the active and inactive calls. No cut-off for these calls is given here.

How the values were obtained:
[1] = tested on: Mycobacterium tuberculosis; experiment: Antimycobacterial activity against Mycobacterium tuberculosis H37Rv incubated at 37 degC for 4 weeks; assay type: functional; details: 672 h
[2] = Cytotoxicity against African green monkey Vero C1008 cells assessed as reduction in cell viability after 24 hrs by MTS assay; assay type: cell-based; details: Chlorocebus sabaeus
[3] = Selectivity index, ratio of IC50 for African green monkey Vero C1008 cells to MIC for Mycobacterium tuberculosis H37Rv; assay type: toxicity, cell-based; details: read-out: Selectivity Index
[4] = tested on: Mycobacterium tuberculosis; experiment: Bactericidal activity against Mycobacterium tuberculosis H37Rv infected in Swiss mouse assessed as microbial killing by measuring colony forming units dosed orally daily for 28 days (reference value: 4800 CFU); assay type: functional
[5] = tested on: Mycobacterium tuberculosis; experiment: Antimycobacterial activity against Mycobacterium tuberculosis H37Rv infected in mouse bone-marrow derived macrophages assessed as reduction in intracellular colony forming units at 4 times antimycobacterial MIC measured during 3 hrs infection period; assay type: functional
[6] = tested on: Mycobacterium tuberculosis; experiment: Antimycobacterial activity against Mycobacterium tuberculosis H37Rv infected in human blood monocyte derived macrophages assessed as reduction in intracellular colony forming units at 4 times antimycobacterial MIC measured during 3 hrs infection period; assay type: functional, organism-based
[7] = tested on: Mycobacterium tuberculosis; experiment: Antimycobacterial activity against Mycobacterium tuberculosis H37Rv infected in mouse bone-marrow derived macrophages assessed as reduction in intracellular colony forming units at 4 times antimycobacterial MIC measured during 3 hrs infection period relative to control; assay type: functional
[8] = tested on: Mycobacterium tuberculosis; experiment: Antimycobacterial activity against Mycobacterium tuberculosis H37Rv infected in human blood monocyte derived macrophages assessed as reduction in intracellular colony forming units at 4 times antimycobacterial MIC measured during 3 hrs infection period relative to control; assay type: functional
[9] = tested on: Mycobacterium tuberculosis; experiment: Antimycobacterial activity against Mycobacterium tuberculosis H37Rv infected in Swiss mouse assessed as mouse survival level at 100 mg/kg, po dosed daily for 28 days measured up to day 40; assay type: functional
[10] = tested on: Mycobacterium tuberculosis; experiment: Antimycobacterial activity against Mycobacterium tuberculosis H37Rv infected in Swiss mouse assessed as median survival time at 100 mg/kg, po dosed daily for 28 days measured up to day 40; assay type: functional
[11] = tested on: Mycobacterium tuberculosis; experiment: Antimycobacterial activity against Mycobacterium tuberculosis H37Rv infected in Swiss mouse assessed as reduction in lung bacterial lesions at 100 mg/kg, po dosed daily for 28 days measured up to day 40 by Ziehl-Neelsen staining method; assay type: functional, organism-based; design: dose 100 mg/kg
[12] = tested on: Mycobacterium tuberculosis; experiment: Antimycobacterial activity against Mycobacterium tuberculosis H37Rv infected in Swiss mouse assessed as lung bacterial colony forming units at 100 mg/kg, po dosed daily for 28 days measured up to day 40 (reference value: 31 10^7 CFU); assay type: functional
[13] = tested on: Mycobacterium tuberculosis; experiment: Bactericidal activity against Mycobacterium tuberculosis H37Rv assessed as microbial killing at 1 times and 4 times MIC level measured on day 14; assay type: functional
[14] = tested on: Mycobacterium tuberculosis; experiment: Bactericidal activity against Mycobacterium tuberculosis H37Rv infected in Swiss mouse assessed as microbial killing at 100 mg/kg, po dosed daily for 28 days; assay type: functional; details: 672 h
[15] = Elimination half life in rat by HPLC and LC-MS/MS method; assay type: ADME, organism-based; details: in vivo, read-out: beta t1/2 (converted)
[16] = Protein binding in rat plasma by HPLC and LC-MS/MS method; assay type: ADME, cell-free; details: read-out: PPB (converted)
[17] = Mean residence time in rat by HPLC and LC-MS/MS method; assay type: ADME, organism-based; details: in vivo
[18] = Bioavailability in rat by HPLC and LC-MS/MS method; assay type: ADME, organism-based; details: in vivo
[19] = tested on: Mycobacterium tuberculosis; experiment: Antimycobacterial activity against Mycobacterium tuberculosis H37Rv infected in Swiss mouse assessed as reduction in lung bacterial colony forming units at 100 mg/kg, po dosed daily for 28 days measured up to day 40; assay type: functional
[20] = tested on: Mycobacterium tuberculosis; experiment: Antimycobacterial activity against drug-sensitive Mycobacterium tuberculosis H37Rv by agar dilution method; assay type: functional
[21] = tested on: Mycobacterium tuberculosis; experiment: Bactericidal activity against Mycobacterium tuberculosis H37Rv assessed as microbial killing by measuring colony forming units at 1 times and 4 times MIC level measured on day 14 (reference value: 1680 CFU); assay type: functional
[22] = tested on: Mycobacterium tuberculosis; experiment: Bactericidal activity against Mycobacterium tuberculosis H37Rv infected in Swiss mouse assessed as microbial killing by measuring colony forming units at 100 mg/kg, po dosed daily for 28 days (reference value: 4800 CFU); assay type: functional
[23] = tested on: Mycobacterium tuberculosis; experiment: Antimycobacterial activity against Mycobacterium tuberculosis H37Rv infected in Swiss mouse assessed as lung bacterial colony forming units at 10 mg/kg, po dosed daily for 28 days measured up to day 40 (reference value: 31 10^7 CFU); assay type: functional
[24] = tested on: Mycobacterium tuberculosis; experiment: Antimycobacterial activity against Mycobacterium tuberculosis H37Rv infected in Swiss mouse assessed as lung bacterial colony forming units at 150 mg/kg, po dosed daily for 28 days measured up to day 40 (reference value: 31 10^7 CFU); assay type: functional

| SMILES | MIC [1] [µg/mL] | IC50 [2] [µg/mL] | selectivity ratio [3] | other results |
| --- | --- | --- | --- | --- |
| Clc1cccc(C(c2ccc(OCCN3CCOCC3)cc2)c2cccs2)c1 (stereo not drawn) | 5.18 (≈ 12.5 µM) | 23.4 (≈ 56.5 µM) | < 10 | – |
| CN(C)CCOc1ccc(C(c2cccc(Cl)c2)c2cccs2)cc1 (stereo not drawn) | 4.65 (≈ 12.5 µM) | 10.8 (≈ 29 µM) | < 10 | – |
| COc1ccccc1C(c1ccc(OCCN2CCCC2)cc1)c1cccs1 (stereo not drawn) | 25 (≈ 63.5 µM) | – | – | – |
| CCN(CC)CCOc1ccc(C(c2ccccc2)c2cccs2)cc1 (stereo not drawn) | 12.5 (≈ 34.1 µM) | – | – | – |
| Fc1ccccc1C(c1ccc(OCCN2CCCCC2)cc1)c1cccs1 (stereo not drawn) | 1.24 (≈ 3.13 µM) | 3.9 (≈ 9.86 µM) | < 10 | – |
| COc1ccccc1C(c1ccc(OCCN(C(C)C)C(C)C)cc1)c1cccs1 (stereo not drawn) | 25 (≈ 59 µM) | – | – | – |
| c1ccc(C(c2ccc(OCCN3CCCCC3)cc2)c2cccs2)cc1 (stereo not drawn) | 6.23 (≈ 16.5 µM) | – | – | – |
| Fc1ccccc1C(c1ccc(OCCN2CCCC2)cc1)c1cccs1 (stereo not drawn) | 19.1 (≈ 50.1 µM) | – | – | – |
| CSc1ccccc1C(c1ccc(OCCN(C)C)cc1)c1cccs1 (stereo not drawn) | 12.5 (≈ 32.6 µM) | – | – | – |
| COc1ccccc1C(c1ccc(OCCN2CCCCC2)cc1)c1cccs1 (stereo not drawn) | 1.28 (≈ 3.14 µM) | 9.2 (≈ 22.6 µM) | < 10 | – |
| Fc1cccc(C(c2ccc(OCCN3CCCCC3)cc2)c2cccs2)c1 (stereo not drawn) | 19.8 (≈ 50.1 µM) | – | – | – |
| COc1ccccc1C(c1ccc(OCCN2CCOCC2)cc1)c1cccs1 (stereo not drawn) | 10.2 (≈ 25 µM) | – | – | – |
| Clc1cccc(C(c2ccc(OCCN3CCCC3)cc2)c2cccs2)c1 (stereo not drawn) | 2.49 (≈ 6.26 µM) | 8.6 (≈ 21.6 µM) | < 10 | – |
| CO[C@H]1/C=C/O[C@@]2(C)Oc3c(C)c(O)c4c(O)c(c(/C=N/N5CCN(C)CC5)c(O)c4c3C2=O)NC(=O)/C(C)=C\C=C\[C@H](C)[C@H](O)[C@@H](C)[C@@H](O)[C@@H](C)[C@H](OC(C)=O)[C@@H]1C [RIFAMPIN] | – | – | – | CFU [4]: 2000; inhibition [5]: Active |
| CC(C)N(CCOc1ccc(C(c2cccs2)c2ccccc2F)cc1)C(C)C (stereo not drawn) | 10.3 (≈ 25 µM) | – | – | – |
| COc1ccc(C(c2ccc(OCCN(C(C)C)C(C)C)cc2)c2cccs2)cc1 (stereo not drawn) | 1.33 (≈ 3.14 µM) | 100 (≈ 236 µM) | > 10 | inhibition [6]: Active; inhibition (INH) [7]: 96%; inhibition (INH) [8]: 81%; survival at 100 mg/kg [9]: 42%; MST [10]: 7 days; Activity [11]: Active; Activity [12]: 2.2 ×10⁷ CFU; inhibition (INH) [13]: 100%; inhibition in vivo at 100 mg/kg [14]: 75%; half-life [15]: 9 h; fraction unbound [16]: 0.4; MRT [17]: 18 h; bioavailability [18]: 45%; fold change (FC) [19]: 15; MIC [20]: 3.12 µM (≈ 1.32 µg/mL); CFU [21]: 0; CFU [22]: 1200; inhibition (percent reduction in intracellular colony forming units) [5]: >90% |
| Clc1cccc(C(c2ccc(OCCN3CCCCC3)cc2)c2cccs2)c1 (stereo not drawn) | 1.29 (≈ 3.13 µM) | 8.7 (≈ 21.1 µM) | < 10 | – |
| CC(C)N(CCOc1ccc(C(c2ccc(Cl)cc2)c2cccs2)cc1)C(C)C (stereo not drawn) | 1.56 (≈ 3.64 µM) | 100 (≈ 234 µM) | > 10 | inhibition (INH) [7]: 94%; inhibition (INH) [8]: 88%; Activity [9]: Active; inhibition (percent reduction in intracellular colony forming units) [5]: >90% |

| SMILES | MIC [1] [µg/mL] | IC50 [2] [µg/mL] | selectivity ratio [3] | other results |
| --- | --- | --- | --- | --- |
| NNC(=O)c1ccncc1 [ISONIAZID] | – | – | – | inhibition [6]: Active; inhibition (INH) [7]: 93%; inhibition (INH) [8]: 84%; inhibition [5]: Active |
| CCN(CC)CCOc1ccc(C(c2cccc(F)c2)c2cccs2)cc1 (stereo not drawn) | 2.4 (≈ 6.26 µM) | 5.8 (≈ 15.1 µM) | < 10 | – |
| CSc1ccc(C(c2ccc(OCCN(C(C)C)C(C)C)cc2)c2cccs2)cc1 (stereo not drawn) | 1.57 (≈ 3.57 µM) | 100 (≈ 227 µM) | > 10 | inhibition [6]: Active; Activity [9]: Active; inhibition (percent reduction in intracellular colony forming units) [5]: >90% |
| c1ccc(C(c2ccc(OCCN3CCOCC3)cc2)c2cccs2)cc1 (stereo not drawn) | 25 (≈ 65.8 µM) | – | – | – |
| CCN(CC)CCOc1ccc(C(c2cccc(Cl)c2)c2cccs2)cc1 (stereo not drawn) | 1.25 (≈ 3.13 µM) | 10.1 (≈ 25.3 µM) | < 10 | – |
| COc1ccccc1C(c1ccc(OCCN2CCCCCC2)cc1)c1cccs1 (stereo not drawn) | 2.64 (≈ 6.26 µM) | 12.7 (≈ 30.1 µM) | < 10 | – |
| COc1ccccc1C(c1ccc(OCCN(C)C)cc1)c1cccs1 (stereo not drawn) | 9.19 (≈ 25 µM) | – | – | – |
| CN(C)CCOc1ccc(C(c2cccs2)c2ccccc2F)cc1 (stereo not drawn) | 17.8 (≈ 50.1 µM) | – | – | – |
| CN(C)CCOc1ccc(C(c2cccc(F)c2)c2cccs2)cc1 (stereo not drawn) | 17.8 (≈ 50.1 µM) | – | – | – |
| CCN(CC)CCOc1ccc(C(c2cccs2)c2ccccc2F)cc1 (stereo not drawn) | 4.8 (≈ 12.5 µM) | – | – | – |
| Fc1ccccc1C(c1ccc(OCCN2CCOCC2)cc1)c1cccs1 (stereo not drawn) | 19.9 (≈ 50.1 µM) | – | – | – |
| Clc1ccc(C(c2ccc(OCCN3CCCCC3)cc2)c2cccs2)cc1 (stereo not drawn) | 0.78 (≈ 1.89 µM) | 100 (≈ 243 µM) | > 10 | Activity [9]: inactive; inhibition (percent reduction in intracellular colony forming units) [5]: >90% |
| CC[C@@H](CO)NCCN[C@@H](CC)CO [ETHAMBUTOL] | – | – | – | Activity [23]: 1.27 ×10⁷ CFU |
| CCN(CC)CCOc1ccc(C(c2cccs2)c2ccccc2SC)cc1 (stereo not drawn) | 25 (≈ 60.7 µM) | – | – | – |
| c1ccc(C(c2ccc(OCCN3CCCCCC3)cc2)c2cccs2)cc1 (stereo not drawn) | 3.1 (≈ 7.92 µM) | 13 (≈ 33.2 µM) | < 10 | – |
| CCN(CC)CCOc1ccc(C(c2cccs2)c2ccccc2OC)cc1 (stereo not drawn) | 25 (≈ 63.2 µM) | – | – | – |
| CC(C)N(CCOc1ccc(C(c2cccc(Cl)c2)c2cccs2)cc1)C(C)C (stereo not drawn) | 1.34 (≈ 3.13 µM) | 22 (≈ 51.4 µM) | > 10 | – |
| NC(=O)c1cnccn1 [PYRAZINAMIDE] | – | – | – | Activity [24]: 1.9 ×10⁷ CFU; inhibition [5]: Active |
